{
  "source": "patent US20130212744A1",
  "about": "“METHOD OF REDUCING INSECT-VECTORED VIRAL INFECTIONS” (priority 2010, published 2013)",
  "assay_type_in_all_cases": "in vivo",
  "conditions_in_all_cases": "150 g ai/hl",
  "key": {"[1]": {"tested_on": "whitefly Bemisia tabaci adults", "test": "Foliar use field trial on tomato, efficacy on whitefly adults", "description": "(§1) Two studies were carried out in Elhasanya, Egypt in 2009 on tomato plants of the variety Fayrouz with the main goal to measure efficacy on the whitefly Bemisia tabaci. The plot size was 4.8 m^2 and 6 replicates were used in the trial. Products were applied 3 times on young tomato plants at BBCH stages 14, 17 and 51 at spray intervals between 12 and 19 days. The spray volume was at the first application 350 l/ha and later 500 l/ha. The evaluation of this study was done counting the adult whiteflies (Bemisia tabaci) as well as the nymphs and the eggs in each plot. In addition to the direct whitefly effect, visual symptoms of the virus, mainly TYLCV (tomato yellow leaf curl virus) were evaluated also.\n(§2) ASM=Acibenzolar-S-methyl. WG 50=Actigard® 50WG, a water-dispersible granule with the active ingredient ASM CYNT=Cyantraniliprole. WG 40=Cyazypyr®, a water dispersable granule with the active ingredient CYNT. Results on whitefly adults. Trial 1"}, "[2]": {"tested_on": "TYLCV (tomato yellow leaf curl virus)", "test": "Foliar use field trial on tomato, infected leaf area by TYLC virus", "description": "as §1, §2\nEvaluation of percentage of infected leaf area by TYLC virus (average of 45 plants evaluated per treatment) Trial 1"}, "[3]": {"tested_on": "whitefly Bemisia tabaci nymphs", "test": "Foliar use field trial on tomato, efficacy on whitefly nymphs", "description": "as §1, §2"}},
  "data": [
    {"smiles": "Cc1cc(C)c(C2=C(OC(=O)CC(C)(C)C)C3(CCCC3)OC2=O)c(C)c1", "note": "[Spiromesifen]", "values": [
      {"measurement": "% Efficacy on Adults", "setting": "[1]; 5DAA1, Trial 1", "value": 61, "unit": "%"},
      {"measurement": "% Efficacy on Adults", "setting": "[1]; 5DAA1, Trial 2", "value": 61, "unit": "%"},
      {"measurement": "% Efficacy on Adults", "setting": "[1]; 5DAA2, Trial 1", "value": 71, "unit": "%"},
      {"measurement": "% Efficacy on Adults", "setting": "[1]; 5DAA2, Trial 2", "value": 71, "unit": "%"},
      {"measurement": "% Efficacy on Adults", "setting": "[1]; 5DAA3, Trial 1", "value": 81, "unit": "%"},
      {"measurement": "% Efficacy on Adults", "setting": "[1]; 5DAA3, Trial 2", "value": 81, "unit": "%"},
      {"measurement": "% Efficacy on Adults", "setting": "[1]; 10DAA1, Trial 1", "value": 43, "unit": "%"},
      {"measurement": "% Efficacy on Adults", "setting": "[1]; 10DAA1, Trial 2", "value": 43, "unit": "%"},
      {"measurement": "% Efficacy on Adults", "setting": "[1]; 10DAA2, Trial 1", "value": 69, "unit": "%"},
      {"measurement": "% Efficacy on Adults", "setting": "[1]; 10DAA2, Trial 2", "value": 69, "unit": "%"},
      {"measurement": "% Efficacy on Adults", "setting": "[1]; 10DAA3, Trial 1", "value": 76, "unit": "%"},
      {"measurement": "% Efficacy on Adults", "setting": "[1]; 10DAA3, Trial 2", "value": 76, "unit": "%"},
      {"measurement": "% Efficacy on Adults", "setting": "[1]; 15DAA3, Trial 1", "value": 67, "unit": "%"},
      {"measurement": "% Efficacy on Adults", "setting": "[1]; 15DAA3, Trial 2", "value": 67, "unit": "%"},
      {"measurement": "% Efficacy on Adults", "setting": "[1]; 20DAA3, Trial 1", "value": 54, "unit": "%"},
      {"measurement": "% Efficacy on Adults", "setting": "[1]; 20DAA3, Trial 2", "value": 54, "unit": "%"},
      {"measurement": "% Efficacy on Adults Avg % C", "setting": "[1]; Avg, Trial 1", "value": 65, "unit": "%"},
      {"measurement": "% Infected Surface area with virus / plant", "setting": "[2]; 5DAA2, Trial 1", "value": 1.1, "unit": "%"},
      {"measurement": "% Infected Surface area with virus / plant", "setting": "[2]; 5DAA2, Trial 2", "value": 1.1, "unit": "%"},
      {"measurement": "% Infected Surface area with virus / plant", "setting": "[2]; 5DAA3, Trial 1", "value": 0.8, "unit": "%"},
      {"measurement": "% Infected Surface area with virus / plant", "setting": "[2]; 5DAA3, Trial 2", "value": 0.8, "unit": "%"},
      {"measurement": "% Infected Surface area with virus / plant", "setting": "[2]; 10DAA3, Trial 1", "value": 7.1, "unit": "%"},
      {"measurement": "% Infected Surface area with virus / plant", "setting": "[2]; 10DAA3, Trial 2", "value": 7.1, "unit": "%"},
      {"measurement": "% Infected Surface area with virus / plant", "setting": "[2]; 15DAA3, Trial 1", "value": 8.8, "unit": "%"},
      {"measurement": "% Infected Surface area with virus / plant", "setting": "[2]; 15DAA3, Trial 2", "value": 8.8, "unit": "%"},
      {"measurement": "% Infected Surface area with virus / plant", "setting": "[2]; 20DAA3, Trial 1", "value": 11.1, "unit": "%"},
      {"measurement": "% Infected Surface area with virus / plant", "setting": "[2]; 20DAA3, Trial 2", "value": 11.1, "unit": "%"},
      {"measurement": "% Infected Surface area with virus / plant", "setting": "[2]; 24DAA3, Trial 1", "value": 11.5, "unit": "%"},
      {"measurement": "% Infected Surface area with virus / plant", "setting": "[2]; 24DAA3, Trial 2", "value": 11.5, "unit": "%"},
      {"measurement": "% Efficacy on Nymphs", "setting": "[3]; 5DAA2, Trial 1", "value": 86, "unit": "%"},
      {"measurement": "% Efficacy on Nymphs", "setting": "[3]; 5DAA2, Trial 2", "value": 86, "unit": "%"},
      {"measurement": "% Efficacy on Nymphs", "setting": "[3]; 5DAA3, Trial 1", "value": 88, "unit": "%"},
      {"measurement": "% Efficacy on Nymphs", "setting": "[3]; 5DAA3, Trial 2", "value": 88, "unit": "%"},
      {"measurement": "% Efficacy on Nymphs", "setting": "[3]; 10DAA2, Trial 1", "value": 85, "unit": "%"},
      {"measurement": "% Efficacy on Nymphs", "setting": "[3]; 10DAA2, Trial 2", "value": 85, "unit": "%"},
      {"measurement": "% Efficacy on Nymphs", "setting": "[3]; 10DAA3, Trial 1", "value": 84, "unit": "%"},
      {"measurement": "% Efficacy on Nymphs", "setting": "[3]; 10DAA3, Trial 2", "value": 84, "unit": "%"},
      {"measurement": "% Efficacy on Nymphs", "setting": "[3]; 15DAA3, Trial 1", "value": 81, "unit": "%"},
      {"measurement": "% Efficacy on Nymphs", "setting": "[3]; 15DAA3, Trial 2", "value": 81, "unit": "%"},
      {"measurement": "% Efficacy on Nymphs", "setting": "[3]; 20DAA3, Trial 1", "value": 76, "unit": "%"},
      {"measurement": "% Efficacy on Nymphs", "setting": "[3]; 20DAA3, Trial 2", "value": 76, "unit": "%"},
      {"measurement": "% Efficacy on Nymphs Avg % C", "setting": "[3]; Avg, Trial 1", "value": 83, "unit": "%"}
    ]}
  ]
}
